Measured values taken from patent publication US8748417B2, “Amino-pyrrolidine-azetidine diamides as monoacylglycerol lipase inhibitors” (Janssen Pharmaceutica, NV, priority 2010, dated 2014).
Substitutions are numbered along the chain they refer to.

How the values were obtained:
Assay type in all cases: biochemical
[1] = molecular target: T1, purified mutant MGL (mut-MGLL 11-313 L179S L186S) (Homo sapiens, UniProt Q99685, L169S/L176S); assay: MGL enzyme activity assay (4MU-B cleavage), mutant MGL; details: mutant MGL 5 nM, 4MU-B 10 μM, 37° C.; read-out: MGL mutant inh IC50
T1 construct: purified mutant MGL (mut-MGLL 11-313 L179S L186S)
T1 sequence (Q99685 1-303 L169S/L176S): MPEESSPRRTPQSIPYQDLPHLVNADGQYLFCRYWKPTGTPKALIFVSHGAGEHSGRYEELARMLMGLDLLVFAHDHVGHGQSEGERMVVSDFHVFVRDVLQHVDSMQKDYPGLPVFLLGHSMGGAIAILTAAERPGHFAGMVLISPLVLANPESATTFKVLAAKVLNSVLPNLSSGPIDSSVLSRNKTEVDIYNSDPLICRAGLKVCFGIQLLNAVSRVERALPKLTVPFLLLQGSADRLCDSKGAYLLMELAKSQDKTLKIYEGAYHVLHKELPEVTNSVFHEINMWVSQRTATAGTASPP
Description: All rate-based assays were performed in black 384-well polypropylene PCR microplates (Abgene) in a total volume of 30 μL. Substrate 4-methylumbelliferyl butyrate (4MU-B; Sigma) and either purified mutant MGL (mut-MGLL 11-313 L179S L186S) or purified wild type MGL (wt-MGLL 6H-11-313) were diluted separately into 20 mM PIPES buffer (pH=7.0), containing 150 mM NaCl and 0.001% Tween 20. Compounds of Formula (I) were pre-dispensed (50 nL) into the assay plate using a Cartesian Hummingbird prior to adding 4MU-B (25 μL of 1.2× solution to a final concentration of 10 μM) followed by enzyme (5 μL of a 6× solution to a final concentration of 5 nM) to initiate the reaction. Final compound concentrations ranged from 17 to 0.0003 μM. The fluorescence change due to 4MU-B cleavage was monitored with excitation and emission wavelengths of 335 and 440 nm, respectively, and a bandwidth of 10 nm (Safire^2, Tecan) at 37° C. for 5 min.
The IC50 values for the following compounds were determined using Microsoft Office Excel from a fit of the equation to the concentration-response plot of the fractional activity as a function of inhibitor concentration.

[2] = molecular target: T2, purified wild type MGL (wt-MGLL 6H-11-313) (Homo sapiens, UniProt Q99685); assay: MGL enzyme activity assay (4MU-B cleavage), wild type MGL; details: wild type MGL 5 nM, 4MU-B 10 μM, 37° C.; read-out: MGL wild type inh IC50
T2 construct: purified wild type MGL (wt-MGLL 6H-11-313)
T2 sequence (Q99685 1-303): T1 sequence (Q99685 1-303 L169S/L176S) with S169L, S176L
How it was run: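 Enzyme in 20 mM PIPES pH 7.0, 150 mM NaCl, 0.001% Tween 20 with 4MU-B at 10 μM final and MGL at 5 nM final; compounds 17 to 0.0003 μM final, enzyme added last. Fluorescence (ex 335/em 440 nm) followed at 37° C for 5 min; IC50 from fit of fractional activity versus inhibitor concentration.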

[3] = test system: MGL (rat brain homogenate); assay: 2-AG accumulation assay in rat brain homogenate; details: compound 1 μM, percent of vehicle 2-AG accumulation
How it was run: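 Rat brain homogenate was incubated with compound for 15 min at 37° C., after which CaCl2 was added to a final concentration of 10 mM and incubation continued for 15 min at 37° C. in 5 mL total. Reactions were stopped with 6 mL of 2:1 chloroform/methanol, and 2-AG accumulated in the organic phase was quantified by HPLC/MS.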

| Structure (SMILES) | IC50 [1] | IC50 [2] | Rat Brain 2AG % VehCntrl (%) @1 μM [3] |
| --- | --- | --- | --- |
| O=C(c1ccc(-c2cccc(C(F)(F)F)c2)cc1)N1CC(N[C@@H]2CN(C(=O)c3ccccc3)C[C@H]2O)C1 (relative stereo) [Cpd 72, trans-1-(Phenylcarbonyl)-4-[(1-{[3′-(trifluoromethyl)biphenyl-4-yl]carbonyl}azetidin-3-yl)amino]pyrrolidin-3-ol] | 757 nM | – | – |
| O=C(c1cscn1)N1CC[C@H](NC2CN(C(=O)c3sc4ccc(-c5ccc(C(F)(F)F)cc5)cc4c3F)C2)C1 [Cpd 175, (3S)-N-[1-({3-Fluoro-5-[4-(trifluoromethyl)phenyl]-1-benzothiophen-2-yl}carbonyl)azetidin-3-yl]-1-(1,3-thiazol-4-ylcarbonyl)pyrrolidin-3-amine] | – | < 5 nM | 734% |
| O=C(c1ccccc1)N1CC[C@H](NC2CN(C(=O)c3sc4ccc(-c5ccc(C(F)(F)F)cc5)cc4c3F)C2)C1 [Cpd 176, (3S)-N-[1-({3-Fluoro-5-[4-(trifluoromethyl)phenyl]-1-benzothiophen-2-yl}carbonyl)azetidin-3-yl]-1-(phenylcarbonyl)pyrrolidin-3-amine] | – | 6 nM | 832% |
| O=C(c1nccs1)N1CC[C@H](NC2CN(C(=O)c3sc4cc(-c5ccc(C(F)(F)F)cc5)ccc4c3F)C2)C1 [Cpd 177, (3S)-N-[1-({3-Fluoro-6-[4-(trifluoromethyl)phenyl]-1-benzothiophen-2-yl}carbonyl)azetidin-3-yl]-1-(1,3-thiazol-2-ylcarbonyl)pyrrolidin-3-amine] | – | 16 nM | 766% |
| O=C(c1cscn1)N1CC[C@H](NC2CN(C(=O)c3sc4cc(-c5ccc(C(F)(F)F)cc5)ccc4c3F)C2)C1 [Cpd 178, (3S)-N-[1-({3-Fluoro-6-[4-(trifluoromethyl)phenyl]-1-benzothiophen-2-yl}carbonyl)azetidin-3-yl]-1-(1,3-thiazol-4-ylcarbonyl)pyrrolidin-3-amine] | – | < 5 nM | 297% |
| O=C(c1ccccc1)N1CC[C@H](NC2CN(C(=O)c3sc4cc(-c5ccc(C(F)(F)F)cc5)ccc4c3F)C2)C1 [Cpd 179, (3S)-N-[1-({3-Fluoro-6-[4-(trifluoromethyl)phenyl]-1-benzothiophen-2-yl}carbonyl)azetidin-3-yl]-1-(phenylcarbonyl)pyrrolidin-3-amine] | – | 12 nM | 259% |
| O=C(c1ccccc1)N1CC[C@H](NC2CN(C(=O)c3sc4ccc(Cl)cc4c3C(F)(F)F)C2)C1 [Cpd 180, (3S)-N-(1-{[5-Chloro-3-(trifluoromethyl)-1-benzothiophen-2-yl]carbonyl}azetidin-3-yl)-1-(phenylcarbonyl)pyrrolidin-3-amine] | – | 42.7 nM | 333% |
| O=C(c1cscn1)N1CC[C@H](NC2CN(C(=O)c3sc4ccc(Cl)cc4c3C(F)(F)F)C2)C1 [Cpd 181, (3S)-N-(1-{[5-Chloro-3-(trifluoromethyl)-1-benzothiophen-2-yl]carbonyl}azetidin-3-yl)-1-(1,3-thiazol-4-ylcarbonyl)pyrrolidin-3-amine] | – | 39.6 nM | 241% |
| O=C(c1nccs1)N1CC[C@H](NC2CN(C(=O)c3sc4cc(Cl)ccc4c3C(F)(F)F)C2)C1 [Cpd 183, (3S)-N-(1-{[6-Chloro-3-(trifluoromethyl)-1-benzothiophen-2-yl]carbonyl}azetidin-3-yl)-1-(1,3-thiazol-2-ylcarbonyl)pyrrolidin-3-amine] | – | 23.1 nM | 316% |
| Cc1ccc2c(C(F)(F)F)c(C(=O)N3CC(N[C@H]4CCN(C(=O)c5nccs5)C4)C3)sc2c1 [Cpd 186, (3S)-N-(1-{[6-Methyl-3-(trifluoromethyl)-1-benzothiophen-2-yl]carbonyl}azetidin-3-yl)-1-(1,3-thiazol-2-ylcarbonyl)pyrrolidin-3-amine] | – | 90.5 nM | 563% |
| O=C(c1ccc2c(-c3ccccc3)c[nH]c2c1)N1CC(N[C@H]2CCN(C(=O)c3nccs3)C2)C1 [Cpd 187, (3S)-N-{1-[(3-Phenyl-1H-indol-6-yl)carbonyl]azetidin-3-yl}-1-(1,3-thiazol-2-ylcarbonyl)pyrrolidin-3-amine] | – | < 5 nM | 242% |
| O=C(c1ccc2c(-c3ccccc3)c[nH]c2c1)N1CC(N[C@H]2CCN(C(=O)c3cscn3)C2)C1 [Cpd 188, (3S)-N-{1-[(3-Phenyl-1H-indol-6-yl)carbonyl]azetidin-3-yl}-1-(1,3-thiazol-4-ylcarbonyl)pyrrolidin-3-amine] | – | 74.9 nM | 140% |
| O=C(c1ccc2c(-c3ccc(F)cc3)c[nH]c2c1)N1CC(N[C@H]2CCN(C(=O)c3nccs3)C2)C1 [Cpd 189, (3S)-N-(1-{[3-(4-Fluorophenyl)-1H-indol-6-yl]carbonyl}azetidin-3-yl)-1-(1,3-thiazol-2-ylcarbonyl)pyrrolidin-3-amine] | – | 12.5 nM | 277% |
| Cn1cc(-c2ccc(F)cc2)c2ccc(C(=O)N3CC(N[C@H]4CCN(C(=O)c5nccs5)C4)C3)cc21 [Cpd 192, (3S)-N-(1-{[3-(4-Fluorophenyl)-1-methyl-1H-indol-6-yl]carbonyl}azetidin-3-yl)-1-(1,3-thiazol-2-ylcarbonyl)pyrrolidin-3-amine] | – | < 5 nM | 374% |
| Cn1cc(-c2ccc(F)cc2)c2ccc(C(=O)N3CC(N[C@H]4CCN(C(=O)c5cscn5)C4)C3)cc21 [Cpd 193, (3S)-N-(1-{[3-(4-Fluorophenyl)-1-methyl-1H-indol-6-yl]carbonyl}azetidin-3-yl)-1-(1,3-thiazol-4-ylcarbonyl)pyrrolidin-3-amine] | – | 19 nM | 219% |
| Cn1cc(-c2ccc(F)cc2)c2ccc(C(=O)N3CC(N[C@H]4CCN(C(=O)c5ccccc5)C4)C3)cc21 [Cpd 194, (3S)-N-(1-{[3-(4-Fluorophenyl)-1-methyl-1H-indol-6-yl]carbonyl}azetidin-3-yl)-1-(phenylcarbonyl)pyrrolidin-3-amine] | – | 44.9 nM | 178% |
| Cn1nc(-c2ccccc2)c2cc(C(=O)N3CC(N[C@H]4CCN(C(=O)c5nccs5)C4)C3)ccc21 [Cpd 195, (3S)-N-{1-[(1-Methyl-3-phenyl-1H-indazol-5-yl)carbonyl]azetidin-3-yl}-1-(1,3-thiazol-2-ylcarbonyl)pyrrolidin-3-amine] | – | 22.4 nM | 472% |
| O=C(c1nccs1)N1CC[C@H](NC2CN(C(=O)c3ccc4c(ccn4-c4ccc(F)cc4)c3F)C2)C1 [Cpd 198, (3S)-N-(1-{[4-Fluoro-1-(4-fluorophenyl)-1H-indol-5-yl]carbonyl}azetidin-3-yl)-1-(1,3-thiazol-2-ylcarbonyl)pyrrolidin-3-amine] | – | < 5 nM | 937% |
| O=C(c1nccs1)N1CC[C@H](NC2CN(C(=O)c3sc4cc(-c5ccccc5)ccc4c3C(F)(F)F)C2)C1 [Cpd 208, (3S)-N-(1-{[6-Phenyl-3-(trifluoromethyl)-1-benzothiophen-2-yl]carbonyl}azetidin-3-yl)-1-(1,3-thiazol-2-ylcarbonyl)pyrrolidin-3-amine] | – | 13.4 nM | 359% |
| O=C(c1nccs1)N1CC[C@H](NC2CN(C(=O)c3cc4ccn(-c5ccc(F)cc5)c4cc3F)C2)C1 [Cpd 212, (3S)-N-(1-{[6-Fluoro-1-(4-fluorophenyl)-1H-indol-5-yl]carbonyl}azetidin-3-yl)-1-(1,3-thiazol-2-ylcarbonyl)pyrrolidin-3-amine] | – | < 5 nM | 582% |
